Among the data in publication PMC12486159 (American journal of physiology. Renal physiology, 2025) are IC50 values, retold here.

This test has as its target human FATP2 (Homo sapiens, UniProt O14975). The test can be described thus: BODIPY-FA uptake in FATP2-overexpressing HPCT cells, fluorescence plate reader. The test is classed as cell-based.

Sequence of human FATP2 (O14975 whole entry): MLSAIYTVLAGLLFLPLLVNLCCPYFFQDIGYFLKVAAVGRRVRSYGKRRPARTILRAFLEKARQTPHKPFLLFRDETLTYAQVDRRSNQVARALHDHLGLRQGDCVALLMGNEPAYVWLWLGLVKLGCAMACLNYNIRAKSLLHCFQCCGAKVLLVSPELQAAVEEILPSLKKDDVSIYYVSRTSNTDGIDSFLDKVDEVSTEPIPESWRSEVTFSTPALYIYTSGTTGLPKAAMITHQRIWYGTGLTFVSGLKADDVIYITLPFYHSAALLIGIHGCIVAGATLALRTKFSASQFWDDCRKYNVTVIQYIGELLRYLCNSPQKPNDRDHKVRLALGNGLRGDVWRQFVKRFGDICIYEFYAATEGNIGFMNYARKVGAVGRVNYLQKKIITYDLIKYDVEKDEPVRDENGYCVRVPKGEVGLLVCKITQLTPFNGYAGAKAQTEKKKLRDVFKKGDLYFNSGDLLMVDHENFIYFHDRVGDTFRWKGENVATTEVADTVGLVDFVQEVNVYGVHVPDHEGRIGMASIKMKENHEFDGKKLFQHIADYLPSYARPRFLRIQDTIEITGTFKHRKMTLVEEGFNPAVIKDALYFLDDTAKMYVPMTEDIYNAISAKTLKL

Take `O=C1Nc2ccc(Br)cc2C12NN=C(c1ccccc1)S2` (stereo not shown) [Lipofermata]: inhibition was half-maximal at 5 µM (IC50).
